Where two headings read alike, the source gives them in different places.
How the values were obtained:
[1] = molecular target: T1, GFP-SmSERT-A (Schistosoma mansoni, UniProt Q3HL76); experiment: [3H]-serotonin efflux experiment in COS-7 cells
[2] = molecular target: T1, GFP-SmSERT-A; experiment: cell-based; assay type: cell-based; details: for potency difference versus SmSERTs as compared with hSERT (fold less potent at SmSERTs): SmSERTs (A and B) vs hSERT, from IC50 of Table 1
[3] = molecular target: T2, GFP-hSERT (Homo sapiens, UniProt P31645); assay type: cell-based
[4] = molecular target: T2, GFP-hSERT; experiment: Inhibition of [3H]-serotonin uptake in transfected COS-7 cells; assay type: cell-based
[5] = molecular target: T3, GFP-SmSERT-B (Schistosoma mansoni, UniProt Q3I1M7); experiment: [3H]-serotonin efflux experiment in COS-7 cells
[6] = molecular target: T3, GFP-SmSERT-B; experiment: cell-based
[7] = system: S. mansoni sporocysts; details: treatment of the sporocyst snail stage; ref Boyle and Yoshino, 2005; cited from earlier work
[8] = molecular target: SmSERT-A (Schistosoma mansoni, UniProt Q3HL76); experiment: Two-electrode voltage clamp of substrate-elicited currents in Xenopus oocytes; assay type: cell-based; details: for substrate-elicited transport-associated currents, SmSERT-A: voltage-clamped Xenopus oocytes
[9] = molecular target: SmSERT-B (Schistosoma mansoni, UniProt Q3I1M7); assay type: cell-based; details: for substrate-elicited transport-associated currents, SmSERT-B: voltage-clamped Xenopus oocytes
[10] = system: Schistosoma infections; details: ref Gryseels et al., 2006; cited from earlier work
[11] = molecular target: T3, GFP-SmSERT-B; assay type: cell-based; details: COS-7 cells
[12] = system: S. mansoni sporocysts; details: living sporocysts; ref Boyle et al., 2003; cited from earlier work
[13] = molecular target: T1, GFP-SmSERT-A; assay type: cell-based; details: COS-7 cells
[14] = system: S. mansoni adult worms; details: ref Wood and Mansour, 1986, cited from earlier work
[15] = read-out: IC50 for serotonin transporter substrates, SmSERT-A
[16] = read-out: IC50 for serotonin transporter substrates, hSERT
[17] = Imax / (Vmax * Faraday constant), same batches of oocytes

T2 sequence (P31645 whole entry): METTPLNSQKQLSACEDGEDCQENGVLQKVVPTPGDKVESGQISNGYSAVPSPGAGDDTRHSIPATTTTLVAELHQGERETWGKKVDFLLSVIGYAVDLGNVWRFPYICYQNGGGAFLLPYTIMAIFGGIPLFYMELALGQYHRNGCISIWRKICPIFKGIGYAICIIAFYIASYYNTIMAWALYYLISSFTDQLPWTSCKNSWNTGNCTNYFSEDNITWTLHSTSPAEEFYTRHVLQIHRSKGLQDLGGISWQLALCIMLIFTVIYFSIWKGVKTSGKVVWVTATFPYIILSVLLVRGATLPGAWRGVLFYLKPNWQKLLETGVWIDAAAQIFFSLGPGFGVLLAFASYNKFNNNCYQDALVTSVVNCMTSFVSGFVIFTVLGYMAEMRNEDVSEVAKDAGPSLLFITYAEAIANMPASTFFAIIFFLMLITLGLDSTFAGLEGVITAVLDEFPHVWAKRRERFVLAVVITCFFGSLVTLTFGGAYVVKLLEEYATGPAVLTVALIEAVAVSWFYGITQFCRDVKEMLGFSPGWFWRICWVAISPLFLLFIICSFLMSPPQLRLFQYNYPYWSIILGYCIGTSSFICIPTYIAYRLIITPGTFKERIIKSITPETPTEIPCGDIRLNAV

**Q.** What does the source list for `CNC(C)Cc1ccc2c(c1)OCO2` (racemic) [(±)MDMA]?
**A.** [3H]-serotonin efflux elicited by compound, SmSERT-A [1]: not transported; IC50 [2, 15]: 320000 ± 162000 nM; [3H]-serotonin efflux elicited by compound, hSERT [3]: able to elicit serotonin efflux; IC50 [4, 16]: 2700 ± 500 nM; [3H]-serotonin efflux elicited by compound, SmSERT-B [5]: not transported

**Q.** For `O=[N+]([O-])c1ccc2nc(N3CCNCC3)ccc2c1` [6-Nitroquipazine], which IC50 [6] is on record?
**A.** Its IC50 is 4 ± 2 nM.

**Q.** And the IC50 [2]?
**A.** Its IC50 is 4 ± 2 nM.

**Q.** And the “potency difference versus SmSERTs as compared with hSERT (fold less potent at SmSERTs)” value [2]?
**A.** Its value is “two-fold”.

**Q.** What about the IC50 [4] of the same molecule?
**A.** Its IC50 is 2 ± 0.4 nM.

**Q.** What does the source list for `COC(=O)[C@H]1[C@@H](OC(=O)c2ccccc2)C[C@@H]2CC[C@H]1N2C` [Cocaine]?
**A.** IC50 [6]: 35400 ± 7600 nM; IC50 [2]: 37600 ± 16000 nM

**Q.** For `CNCCC(Oc1ccc(C(F)(F)F)cc1)c1ccccc1` (centres unmarked) [Fluoxetine], which “production of daughter sporocysts” value [7] is on record?
**A.** Its value is “prevents the production of daughter sporocysts”.

**Q.** With `CN(C)CCCN1c2ccccc2CCc2ccccc21` [Imipramine] as the molecule, how does the IC50 [6] read?
**A.** Its IC50 is 300 ± 200 nM.

**Q.** And the IC50 [2]?
**A.** Its IC50 is 300 ± 100 nM.

**Q.** Which IC50 [6] does the source give for `CSc1ccc2c(c1)C(N1CCN(C)CC1)Cc1ccccc1S2` (centres unmarked) [Methiothepin] here?
**A.** The IC50 was 2200 ± 700 nM.

**Q.** What about the IC50 [2] of the same molecule?
**A.** The IC50 was 1900 ± 700 nM.

**Q.** What about the IC50 [4] of the same molecule?
**A.** The IC50 was 6700 ± 4100 nM.

**Q.** What does the source list for `COC(=O)[C@H]1C(c2ccc(I)cc2)C[C@@H]2CC[C@H]1N2C` (some centres unmarked) [RTI-55]?
**A.** IC50 ([6]; read-out: IC50 for inhibiting serotonin uptake, SmSERT-B, COS-7 cells, 100 nM [3H]serotonin, 10 min, mean ± SD): 600 ± 400 nM; potency difference versus SmSERTs as compared with hSERT (fold less potent at SmSERTs) [2]: 60 fold; IC50 ([2]; read-out: IC50 for inhibiting serotonin uptake, SmSERT-A): 600 ± 400 nM; IC50 ([4]; read-out: IC50 for inhibiting serotonin uptake, hSERT): 10 ± 10 nM

**Q.** With `COc1ccc2[nH]cc(C3=CCNCC3)c2c1` [RU 24969] as the molecule, how does the IC50 [6] read?
**A.** Its IC50 is 165000 ± 65000 nM.

**Q.** What about the IC50 [2] of the same molecule?
**A.** Its IC50 is 180000 ± 63000 nM.

**Q.** What about the “[3H]-serotonin efflux elicited by compound, hSERT” value [3] of the same molecule?
**A.** The value was “able to elicit serotonin efflux”.

**Q.** What about the IC50 [4] of the same molecule?
**A.** Its IC50 is 8500 ± 900 nM.

**Q.** Which results are given for `C[C@H](N)Cc1ccccc1` [S(+)Amphetamine]?
**A.** [3H]-serotonin efflux elicited by compound, SmSERT-A [1]: not transported; IC50 [2, 15]: 300000 ± 27000 nM; [3H]-serotonin efflux elicited by compound, SmSERT-B [5]: not transported

**Q.** Which IC50 [6] does the source give for `NCCc1c[nH]c2ccccc12` [Tryptamine] here?
**A.** Its IC50 is 19300 ± 4400 nM.

**Q.** And the “substrate-elicited transport-associated currents, SmSERT-A” value [8]?
**A.** The value was “elicits clear transport associated currents”.

**Q.** What about the “substrate-elicited transport-associated currents, SmSERT-B” value [9] of the same molecule?
**A.** Its value is “elicits clear transport associated currents”.

**Q.** What about the IC50 [2] of the same molecule?
**A.** Its IC50 is 19600 ± 3600 nM.

**Q.** And the “[3H]-serotonin efflux elicited by compound, hSERT” value [3]?
**A.** The value was “able to elicit serotonin efflux”.

**Q.** What about the IC50 [4] of the same molecule?
**A.** Its IC50 is 1400 ± 100 nM.

**Q.** With `Cl.Cl.Clc1cccc(N2CCNCC2)c1` [m-CPP, m-1-(3-Chlorophenyl)piperazine dihydrochloride] as the molecule, how does the “[3H]-serotonin efflux elicited by compound, SmSERT-A” value [1] read?
**A.** The value was “not transported”.

**Q.** And the IC50 [2, 15]?
**A.** The IC50 was 58000 ± 4000 nM.

**Q.** And the “[3H]-serotonin efflux elicited by compound, hSERT” value [3]?
**A.** Its value is “able to elicit serotonin efflux”.

**Q.** What about the IC50 [4, 16] of the same molecule?
**A.** Its IC50 is 1800 ± 300 nM.

**Q.** What about the “[3H]-serotonin efflux elicited by compound, SmSERT-B” value [5] of the same molecule?
**A.** Its value is “not transported”.

**Q.** For `O=C(C1CCCCC1)N1CC(=O)N2CCc3ccccc3C2C1` (centres unmarked) [praziquantel], which “activity on immature worms and eggs” value [10] is on record?
**A.** The value was “not active on immature worms and eggs”.

**Q.** Which “transport of tritiated substrate by SmSERT-B” value ([11]; data not shown) does the source give for `NCCc1c[nH]c2ccc(O)cc12` [serotonin, 5-hydroxytryptamine] here?
**A.** Its value is “transport”.

**Q.** What about the “Vmax of serotonin uptake, SmSERT-B” value ([11]; mean ± SD of three experiments) of the same molecule?
**A.** Its value is 1.4 ± 1.1 pmol/min.

**Q.** And the Km ([11]; read-out: apparent affinity (KT / KM) for serotonin uptake, SmSERT-B, 10 min, room temperature, mean ± SD of three experiments)?
**A.** The Km was 2.2 ± 1.1 µM.

**Q.** What about the “apparent affinity for serotonin uptake in sporocysts” value [12] of the same molecule?
**A.** Its value is 1.4 µM.

**Q.** What about the “transport of tritiated substrate by SmSERT-A” value ([13]; data not shown) of the same molecule?
**A.** The value was “transport”.

**Q.** What about the “Vmax of serotonin uptake, SmSERT-A” value ([13]; mean ± SD of three experiments) of the same molecule?
**A.** The value was 1.8 ± 1.4 pmol/min.

**Q.** What about the Km ([13]; read-out: apparent affinity (KT / KM) for serotonin uptake, SmSERT-A, 10 min, room temperature, mean ± SD of three experiments) of the same molecule?
**A.** Its Km is 2.3 ± 0.9 µM.

**Q.** What about the “apparent affinity for serotonin uptake, adult female worms” value ([14]; living adult female parasites) of the same molecule?
**A.** The value was 1.46 µM.

**Q.** And the “apparent affinity for serotonin uptake, adult male worms” value ([14]; living adult male parasites)?
**A.** Its value is 1.73 µM.

**Q.** And the “charges moved per serotonin molecule transported (Q/Jmax), SmSERT-A” value [8, 17]?
**A.** The value was 1.9 charges.

**Q.** And the “substrate-elicited transport-associated currents, SmSERT-A” value [8]?
**A.** Its value is “concentration-dependent inward currents”.

**Q.** And the “charges moved per serotonin molecule transported (Q/Jmax), SmSERT-B” value [9, 17]?
**A.** The value was 1.9 charges.

**Q.** And the “substrate-elicited transport-associated currents, SmSERT-B” value [9]?
**A.** Its value is “concentration-dependent inward currents”.

From article PMC2746412 (European journal of pharmacology, 2009)
